Bounds are passed on as bounds.

The target in experiment [1] is cABLT315 kinase (Homo sapiens, UniProt P00519). Briefly: cABLT315 kinase Caliper assay. Format: biochemical. The method, then: PKCα and cABLT315 Kinase Caliper Assays
Assays were performed in 384 well microtiter plates. Each assay plate contained 8-point serial dilutions for test compounds, as well as two 16-point serial dilutions of staurosporine as reference compound, plus 16 high- and 16 low controls. Liquid handling and incubation steps were done on a Thermo CatX workstation equipped with a Innovadyne Nanodrop Express. Between pipetting steps, tips were cleaned in wash cycles using wash buffer. Plates with terminated kinase reactions were transferred to the Caliper LC3000 workstations for reading. Phosphorylated and unphosphorylated peptides were separated using the Caliper microfluidic mobilitishift technology and Kinase activities were calculated from the amounts of formed phospho-peptide.
Kinase reactions were prepared in 384 low volume plates by the following sequence:
1. 0.05 μA Compound (start with 1.8 mM in 90% DMSO/10% H2O)
2. +4.5 μl 2× peptide/ATP solution
3. +4.5 μl 2× enzyme solution
4. Incubate for 60 min at 30° C.
4. +16 μl stop/run buffer
Independent of the kinase, all reactions were done performed in 50 mM HEPES, pH 7.5, 1 mM DTT, 0.02% Tween20, 0.02% BSA, and 0.6% DMSO. For cABLT315 assay specific details were as follows: [cABLT315 kinase]=2.4 nM, [ATP]=10 uM, [peptide]=2 uM, [Mg]=10 mM. For PKCα, assay specific details were as follows: [kinase]=0.012 nM, [ATP]=17 uM, [peptide]=1 uM, [Mg]=7 mM, [Ca]=0.2 mM.

Experiment [2] addresses KDR kinase (Homo sapiens, UniProt P35968). Briefly: KDR kinase inhibition assay (LanthaScreen TR-FRET). Format: biochemical. The method, then: KDR Kinase Inhibition Assay
LanthaScreen™ is the detection of Time-Resolved Fluorescence Resonance Energy Transfer (TR-FRET) using lanthanide chelates to measure interactions between various binding partners. The application of TR-FRET to assay kinase activity was first described by Mathis (1995). A TR-FRET assay was used to measure KDR kinase inhibitory activity. The assay panel was run on a Biomek FX liquid handling workstations. To the assay plates containing 50 nL compound or control solutions, 4.5 μL of buffer A (50 mM TRIS-HCl pH 7.4, 2 mM DTT, 0.02% Tween 20, 0.02 mM Na3VO4, H2O nanpure) including a generic concentration of ATP (2 μM f.c.) was added per well, followed by 4.5 μL of buffer B (4 uM ATP in Buffer A) including a generic concentration of polyEAY (50 nM f.c.), KDR kinase, and divalent cations. Final concentration of kinase and cations were: [KDR kinase]=0.38 nM, [Mg]=10 mM, [Ca]=1 mM. After 1 hour of incubation the kinase reactions were stopped by the addition of 4.5 μL of stop solution D (50 mM EDTA, 20 mM TRIS-HCl pH 7.4, 0.04% NP-40) immediately followed by 4.5 μL of buffer A (50 mM TRIS-HCl pH 7.4, 2 mM DTT, 0.02% Tween 20, 0.02 mM Na3VO4, H2O nanpure) including the Tb-labeled P-20 antibody to give a total detection volume of 18 μL. After an incubation time of 45 min in the dark, the plates were transferred into the Pherastar fluorescence reader for counting. The effect of compound on the enzymatic activity was obtained from the linear progress curves and determined from one reading (end point measurement).
On the technique in general: TR-FRET usually uses a lanthanide donor and a delayed reading to cut background.

Experiment [3] concerns the target T1, hERG (Homo sapiens, UniProt Q12809).
T1 construct: host or cells: crude membrane suspension
Briefly: hERG binding assay ([3H] dofetilide displacement). Particulars: dofetilide displacement; read-out: HERGdof IC50. The gist of the method:
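Displacement of 2.5 nM [3H]dofetilide from crude hERG membranes (ca. 15 μg protein) by filtration binding, 90 min at room temperature, 0.5% DMSO final. Non-specific binding defined with 25 μM terfenadine; compounds run as 9-point duplicate curves from 30 μM to 3 nM.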
For orientation: The hERG channel carries a current that helps repolarise heart muscle cells.

In experiment [4] the target is PIM3 (Homo sapiens, UniProt Q86V86). Description: KinaseGlo Pim3 ATP depletion assay. In kind it is biochemical. A digest of the protocol: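 Residual ATP was detected by luciferase luminescence once about half had been consumed. The reaction contained 5 nM enzyme, 100 μM BAD peptide (RSRHSSYPAGT) and 40 μM ATP in 50 mM HEPES pH 7.5, 5 mM MgCl2, 1 mM DTT and 0.05% BSA with 2.5% DMSO. Compound and enzyme/peptide were premixed 15 min before ATP.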
(Kinase-Glo measures the ATP left after a reaction by luminescence.)

T1 sequence (Q12809 whole entry): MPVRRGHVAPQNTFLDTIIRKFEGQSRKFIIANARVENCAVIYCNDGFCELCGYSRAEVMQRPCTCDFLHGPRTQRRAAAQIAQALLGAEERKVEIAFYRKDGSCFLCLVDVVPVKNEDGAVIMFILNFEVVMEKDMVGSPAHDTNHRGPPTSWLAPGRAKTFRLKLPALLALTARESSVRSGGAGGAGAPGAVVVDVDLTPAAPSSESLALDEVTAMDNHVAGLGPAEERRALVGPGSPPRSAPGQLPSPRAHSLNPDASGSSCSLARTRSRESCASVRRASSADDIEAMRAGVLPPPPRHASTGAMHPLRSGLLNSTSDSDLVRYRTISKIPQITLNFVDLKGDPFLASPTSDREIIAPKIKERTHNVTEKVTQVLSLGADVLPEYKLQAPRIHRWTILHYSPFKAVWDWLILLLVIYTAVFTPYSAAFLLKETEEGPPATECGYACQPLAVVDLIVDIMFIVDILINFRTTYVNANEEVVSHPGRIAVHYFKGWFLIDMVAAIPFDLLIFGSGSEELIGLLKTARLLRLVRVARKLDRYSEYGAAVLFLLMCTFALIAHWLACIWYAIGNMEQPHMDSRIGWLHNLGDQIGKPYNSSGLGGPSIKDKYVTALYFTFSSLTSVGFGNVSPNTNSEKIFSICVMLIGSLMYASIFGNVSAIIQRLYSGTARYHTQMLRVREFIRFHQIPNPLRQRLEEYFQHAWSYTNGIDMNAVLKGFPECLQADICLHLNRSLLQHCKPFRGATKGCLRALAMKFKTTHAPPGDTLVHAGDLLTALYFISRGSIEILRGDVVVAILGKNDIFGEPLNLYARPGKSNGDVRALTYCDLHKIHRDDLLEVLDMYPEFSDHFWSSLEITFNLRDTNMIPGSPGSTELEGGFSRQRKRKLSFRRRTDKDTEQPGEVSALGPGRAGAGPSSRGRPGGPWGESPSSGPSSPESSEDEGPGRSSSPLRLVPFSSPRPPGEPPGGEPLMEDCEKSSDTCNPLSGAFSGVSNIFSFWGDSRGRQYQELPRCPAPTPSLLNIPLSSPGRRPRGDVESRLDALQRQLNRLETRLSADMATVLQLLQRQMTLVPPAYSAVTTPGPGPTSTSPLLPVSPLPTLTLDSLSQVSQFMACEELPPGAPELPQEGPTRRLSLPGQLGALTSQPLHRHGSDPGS
Sequence of KDR kinase (P35968 20-1356): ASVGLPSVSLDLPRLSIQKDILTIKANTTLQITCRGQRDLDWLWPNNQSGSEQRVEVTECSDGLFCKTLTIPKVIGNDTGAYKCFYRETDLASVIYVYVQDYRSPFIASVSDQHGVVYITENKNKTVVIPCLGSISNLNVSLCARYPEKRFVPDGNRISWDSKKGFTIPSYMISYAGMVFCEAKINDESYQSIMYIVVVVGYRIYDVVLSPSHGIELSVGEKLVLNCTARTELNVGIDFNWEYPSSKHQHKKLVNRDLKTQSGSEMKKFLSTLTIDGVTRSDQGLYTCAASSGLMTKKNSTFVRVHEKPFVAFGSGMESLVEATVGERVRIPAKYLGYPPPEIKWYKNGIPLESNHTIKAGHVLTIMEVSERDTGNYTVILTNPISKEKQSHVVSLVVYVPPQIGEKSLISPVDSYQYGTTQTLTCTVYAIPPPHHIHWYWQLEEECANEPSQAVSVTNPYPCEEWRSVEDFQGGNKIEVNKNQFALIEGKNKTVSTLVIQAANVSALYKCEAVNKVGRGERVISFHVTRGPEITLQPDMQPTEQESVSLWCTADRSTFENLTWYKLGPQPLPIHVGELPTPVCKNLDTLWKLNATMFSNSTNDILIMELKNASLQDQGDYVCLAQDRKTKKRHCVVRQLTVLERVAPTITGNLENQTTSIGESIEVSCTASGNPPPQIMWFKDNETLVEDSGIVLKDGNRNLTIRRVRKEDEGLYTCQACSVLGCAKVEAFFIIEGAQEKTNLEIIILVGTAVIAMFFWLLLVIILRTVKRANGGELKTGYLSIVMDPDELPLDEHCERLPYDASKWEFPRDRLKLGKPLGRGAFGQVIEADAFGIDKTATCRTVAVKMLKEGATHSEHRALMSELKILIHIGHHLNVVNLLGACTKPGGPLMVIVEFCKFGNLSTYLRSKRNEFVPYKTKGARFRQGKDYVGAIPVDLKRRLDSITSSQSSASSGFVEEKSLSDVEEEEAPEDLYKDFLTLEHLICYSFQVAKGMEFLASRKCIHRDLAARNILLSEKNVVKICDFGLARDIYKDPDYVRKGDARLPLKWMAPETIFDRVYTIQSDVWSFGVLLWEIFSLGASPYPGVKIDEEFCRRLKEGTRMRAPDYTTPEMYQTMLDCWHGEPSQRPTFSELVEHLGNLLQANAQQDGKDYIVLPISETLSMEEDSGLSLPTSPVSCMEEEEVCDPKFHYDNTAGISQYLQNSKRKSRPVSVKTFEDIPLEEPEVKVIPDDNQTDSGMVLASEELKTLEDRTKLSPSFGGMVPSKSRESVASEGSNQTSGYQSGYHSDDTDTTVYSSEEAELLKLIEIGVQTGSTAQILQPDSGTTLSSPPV

Regarding `C=C1[C@@H](O)C[C@@H](c2ccncc2NC(=O)c2nc(-c3ccccc3)cnc2N)OC12CC2` [Example 5, 3-amino-N-(4-((5S,7S)-7-hydroxy-8-methylene-4-oxaspiro[2.5]octan-5-yl)pyridin-3-yl)-6-phenylpyrazine-2-carboxamide], the IC50 is 70 nM in experiment [1], 10 nM in experiment [2], greater than 30 µM in experiment [3] and 37.3 nM in experiment [4].

Regarding `C[C@H]1O[C@@H](c2ccncc2NC(=O)c2nc(-c3ccccc3)ncc2N)C[C@@H](O)[C@]1(C)O` [Example 32, 5-amino-N-(4-((2R,4R,5S,6R)-4,5-dihydroxy-5,6-dimethyltetrahydro-2H-pyran-2-yl)pyridin-3-yl)-2-phenylpyrimidine-4-carboxamide], the IC50 in experiment [1] was 9000 nM; in experiment [2], greater than 10000 nM; in experiment [3] it was greater than 30 µM; in experiment [4], 3 nM.

Take `Nc1ncc(-c2ccccc2)nc1C(=O)Nc1cnccc1[C@H]1C[C@@H](O)[C@H](O)[C@@H](CCl)O1` [Example 36, 3-amino-N-(4-((2R,4R,5S,6S)-6-(chloromethyl)-4,5-dihydroxytetrahydro-2H-pyran-2-yl)pyridin-3-yl)-6-phenylpyrazine-2-carboxamide]: the IC50 was 30 nM in experiment [1], 1 nM in experiment [2], greater than 30 µM in experiment [3] and 2 nM in experiment [4].

`CC[C@H]1O[C@@H](c2ccncc2NC(=O)c2nc(-c3ccccc3)ncc2N)C[C@@H](O)[C@@H]1O` [Example 39, 5-amino-N-(4-((2R,4R,5S,6R)-6-ethyl-4,5-dihydroxytetrahydro-2H-pyran-2-yl)pyridin-3-yl)-2-phenylpyrimidine-4-carboxamide]: the IC50 in experiment [1] is 8000 nM; in experiment [2], greater than 10000 nM; in experiment [3], greater than 30 µM; in experiment [4] it was 4 nM.

Turning to `C[C@H]1O[C@@H](c2ccncc2NC(=O)c2nc(-c3ccccc3)cnc2N)[C@H](F)[C@@H](O)[C@]1(C)O` [Example 58, 3-amino-N-(4-((2S,3R,4S,5S,6R)-3-fluoro-4,5-dihydroxy-5,6-dimethyltetrahydro-2H-pyran-2-yl)pyridin-3-yl)-6-phenylpyrazine-2-carboxamide], the IC50 in experiment [1] was 660 nM; in experiment [2], 280 nM; in experiment [3], greater than 30 µM; in experiment [4], 27 nM.

With `C[C@@H]1O[C@H](c2ccncc2NC(=O)c2nc(-c3ccccc3)cnc2N)[C@@H](F)[C@H](O)[C@@]1(C)O` [Example 63, 3-amino-N-(4-((2R,3S,4R,5R,6S)-3-fluoro-4,5-dihydroxy-5,6-dimethyltetrahydro-2H-pyran-2-yl)pyridin-3-yl)-6-phenylpyrazine-2-carboxamide], the IC50 in experiment [1] was 650 nM; in experiment [2] it was 220 nM; in experiment [3] it was greater than 30 µM; in experiment [4], 31 nM.

For the compound `C[C@H]1O[C@@H](c2ccncc2NC(=O)c2nc(-c3ccccc3)cnc2N)C[C@@H](O)[C@]1(C)O` [Example 84, 3-amino-N-(4-((2R,4R,5S,6R)-4,5-dihydroxy-5,6-dimethyltetrahydro-2H-pyran-2-yl)pyridin-3-yl)-6-phenylpyrazine-2-carboxamide], the IC50 in experiment [1] is 86 nM; in experiment [2] it was 16 nM; in experiment [3], greater than 30 µM; in experiment [4], 3 nM.

For `C[C@@H]1O[C@H](c2ccncc2NC(=O)c2nc(-c3ccccc3)cnc2N)C[C@H](O)[C@@]1(C)O` [Example 86, 3-amino-N-(4-((2S,4S,5R,6S)-4,5-dihydroxy-5,6-dimethyltetrahydro-2H-pyran-2-yl)pyridin-3-yl)-6-phenylpyrazine-2-carboxamide], the IC50 worked out at 700 nM in experiment [1], 300 nM in experiment [2], 25 µM in experiment [3] and 15 nM in experiment [4].

For `Nc1ncc(-c2ccccc2)nc1C(=O)Nc1cnccc1[C@@H]1C[C@H](O)[C@]2(O)CCC[C@@H]2O1` [Example 186, 3-amino-N-(4-((2S,4S,4aR,7aS)-4,4a-dihydroxyoctahydrocyclopenta[b]pyran-2-yl)pyridin-3-yl)-6-phenylpyrazine-2-carboxamide], the 50% inhibitory concentration (IC50) in experiment [1] is 9900 nM; in experiment [3], greater than 30 µM; in experiment [4], 610 nM.

On to `Nc1ncc(-c2ccccc2)nc1C(=O)Nc1cnccc1[C@H]1C[C@@H](O)[C@@]2(O)CCC[C@H]2O1` [Example 195, 3-amino-N-(4-((2R,4R,4aS,7aR)-4,4a-dihydroxyoctahydrocyclopenta[b]pyran-2-yl)pyridin-3-yl)-6-phenylpyrazine-2-carboxamide], for which the IC50 was 90 nM in experiment [1], greater than 30 µM in experiment [3] and 3.2 nM in experiment [4].

Consider `O=C1CC[C@H]2O[C@@H](c3ccncc3NC(=O)c3ccc(F)c(-c4c(F)cccc4F)n3)C[C@@H](O)[C@@H]2N1` [Example 196, 6-(2,6-difluorophenyl)-5-fluoro-N-(4-((2R,4R,4aS,8aR)-4-hydroxy-6-oxooctahydro-2H-pyrano[3,2-b]pyridin-2-yl)pyridin-3-yl)picolinamide], for which the IC50 in experiment [1] is greater than 10000 nM; in experiment [3], greater than 30 µM; in experiment [4] it was 3.6 nM.

As for `N[C@@H]1C[C@H](c2ccncc2NC(=O)c2ccc(F)c(-c3c(F)cccc3F)n2)O[C@@H]2CCC[C@]12O` [Example 210, N-(4-((2R,4R,4aS,7aR)-4-amino-4a-hydroxyoctahydrocyclopenta[b]pyran-2-yl)pyridin-3-yl)-6-(2,6-difluorophenyl)-5-fluoropicolinamide], the IC50 is greater than 10000 nM in experiment [1], 10 µM in experiment [3] and 2.3 nM in experiment [4].

`Nc1cnc(-c2c(F)cccc2F)nc1C(=O)Nc1cnccc1[C@H]1C[C@@H](N)[C@@]2(O)CCC[C@H]2O1` [Example 213, 5-amino-N-(4-((2R,4R,4aS,7aR)-4-amino-4a-hydroxyoctahydrocyclopenta[b]pyran-2-yl)pyridin-3-yl)-2-(2,6-difluorophenyl)pyrimidine-4-carboxamide]: the IC50 is greater than 10000 nM in experiment [1], greater than 30 µM in experiment [3] and 5.8 nM in experiment [4].

Broadly, the IC50 is the midpoint of a concentration-inhibition curve.

The values are drawn from patent US20130109682A1, “CYCLIC ETHER COMPOUNDS USEFUL AS KINASE INHIBITORS” (NOVARTIS AG, priority 2010, published 2013).
